No end group written: not given here. HA = not defined here
What was measured:
Type in all cases: cell-based, human
[1] = test system: MDA-MB-468 cells expressing EGFP or EGFP-CARP-1 (636–650); experiment: Flow cytometric analysis of apoptosis, MDA-MB-468 sublines; details: 10 μM, 24 h, EGFP vs EGFP-CARP-1 (636–650)-expressing MDA-MB-468
[2] = test system: CARP-1, phospho-JNK1/2, phospho-H2AX, PARP; experiment: Western blot of CARP-1, phospho-JNK1/2, γH2AX, cleaved PARP in MDA-MB-468; details: for CARP-1 and γH2AX increase after knock-down of CARP-1: MDA-MB-468, CARP-1 knock-down; for JNK1/2 and H2AX activation: cells overexpressing myc-His-tagged CARP-1, WB
γH2AX = experiment: Confocal immunofluorescence of γH2AX / peptide, MDA-MB-468
Description: Cells were plated onto chamber slides one day before treatment. Following treatment of cells with respective compounds, the adherent cells were fixed with 5% formaldehyde for 10 min and then washed with phosphate buffered saline (PBS). Samples were blocked (0.5% NP-40, 5% milk powder, 1% fetal bovine serum) for 30 min. After a single wash with PBS, cells were incubated with primary antibodies for 45 to 60 min. Coverslips were washed with PBS and then incubated with secondary antibodies for another 45 to 60 min. They were then washed with PBS and mounted with 0.1 μg/mL 4′,6′-diamidino-2-phenylindole (DAPI) containing mounting solution. For confocal imaging, cells were first fixed with PFA, then stained for CARP-1 by myc-tag antibodies (green), γH2AX antibodies (red), and DAPI (blue) for nuclear staining. Immunofluorescent or confocal images were taken using a Zeiss LSM 510 Meta NLO (63×).
Our next objective was to analyze the biological significance of the CARP-1–H2AX interaction in cells. […] Next, we measured activation of caspases as an apoptosis readout in cells expressing myc-His-tagged wild-type CARP-1 or CARP-1 (Δ600–650) proteins that were either untreated or treated with Adriamycin or CFM compounds as detailed in Section 2. We utilized a lower, 4–5 μM dose of Adriamycin or CFM compounds because a 10 μM Adriamycin dose caused interference in signal output/readout in this particular assay, likely due to background fluorescence that is emitted by higher dose of Adriamycin. Although Adriamycin has a maximum excitation and emission wavelength of 470 and 560 nm, respectively, we found significant fluorescence emission in cells treated with 10 μM Adriamycin at a 380-nm excitation wavelength. Moreover, since caspase activation precedes apoptotic cell death, we utilized a lower dose of Adriamycin to permit a robust measurement of optimal caspase activation in cells undergoing moderate apoptosis with lower/minimal interference by Adriamycin-induced fluorescence signals. […]

COc1cccc2c1C(=O)c1c(O)c3c(c(O)c1C2=O)C[C@@](O)(C(=O)CO)C[C@@H]3O[C@H]1C[C@H](N)[C@H](O)[C@H](C)O1 [Adriamycin, doxorubicin, reference compound]
cells undergoing apoptosis [1]: generally higher percentage of EGFP-expressing cells undergoing apoptosis
CARP-1 and γH2AX increase after knock-down of CARP-1 [2]: abrogated CARP-1 and γH2AX increase
levels of CARP-1 ([2]; MDA-MB-468, single agent (JNK-IN-8 at 5 μM), WB): elevated levels of CARP-1
JNK1/2 and H2AX activation [2]: time-dependent stimulation of JNK1/2 and H2AX activation

O=C1N(Cc2ccccc2Cl)c2ccccc2C12NN=C(c1cccc(Cl)c1)S2 (stereo not shown) [CFM-4.16]
cells undergoing apoptosis [1]: generally higher percentage of EGFP-expressing cells undergoing apoptosis
CARP-1 and γH2AX increase after knock-down of CARP-1 [2]: abrogated CARP-1 and γH2AX increase
JNK1/2 and H2AX activation [2]: time-dependent stimulation of JNK1/2 and H2AX activation

EGFP-H2AX (1–35): EGFP-tagged fusion protein stably expressed in MDA-MB-468 and HeLa sublines (MSGRGKTGGKARAKAKSRSSRAGLQFPVGRVHRLL; also: EGFP fusion, end not given here; UniProt P16104 1-35, looked up, fragment)
nuclear presence of γH2AX (γH2AX; MDA-MB-468 expressing EGFP-H2AX (1–35) vs EGFP, Adriamycin-treated): increased nuclear presence of γH2AX

His-TAT-HA-CARP-1 (636–650): His-TAT-HA-tagged CARP-1 (636–650) peptide, >95% purity, commercially synthesized ({His-TAT-HA}-PKTMKVNDLRKELES; reading uncertain; UniProt Q8IX12 636-650, looked up, fragment)
co-localization with γH2AX (γH2AX; 6 μg/mL peptide, 72 h, confocal, insets top and middle rows of Figure 8C): co-localization
presence of γH2AX in Adriamycin-treated cells (γH2AX; MDA-MB-468 pre-incubated with 6 μg/mL peptide, 72 h, then Adriamycin, vs no peptide or scrambled peptide): increased presence of γH2AX

— PMC6406907, “A H2AX–CARP-1 Interaction Regulates Apoptosis Signaling Following DNA Damage” (Cancers, 2019)
